Reference: patent publication US12377095B2, “Use of ligustrazine nitrone derivatives in treatment and prevention of diabetic complication diseases” (QINGDAO HAILAN PHARMACEUTICALS CO., LTD., priority 2019, dated 2025)

How the values were obtained:
STZ-induced DKD rats [1] = assay: HE staining of kidney tissue, STZ-induced SD rat DKD model; format: in vivo; settings: 10 mg/kg i.g. once/day, 6 weeks
Procedure: (§1) Before the injection, the rats were fasted for 12 hours without water. After weighing, the rats were injected with 55 mg/kg STZ intraperitoneally (STZ needs to be injected quickly, and the injection was completed within 10 minutes), and then returned to the cage to ensure that the rats had sufficient drinking water for 24 hours. Rats were injected with an equal volume of citrate buffer (pH 4.5). After STZ injection for 3 weeks, blood was collected from the tail vein, and blood glucose ≥16.7 mmol/L was used as the criteria for the standard of the rats.
(§2) The route of administration is intragastric administration. TBN was administered twice a day (fixed at 9:00-10:00 am and 3:00-4:00 pm), and Losartan was administered once a day (fixed at 9:00-10:00 am) continuously for 6 weeks.
At the end of the experiment, kidney tissues were quickly separated, fixed with 4% paraformaldehyde and embedded in paraffin, serially sliced, 5 μm each, dried at 37° C. for 1 h, and then stained with hematoxylin and eosin (HE). The process is briefly as follows: paraffin sections were taken out of the 65° C. oven and immediately put in xylene to dewax and rehydrated with gradient alcohol, stained with hematoxylin staining solution for 10 minutes, and microscopically controlled alcohol differentiation with 1% hydrochloric acid was performed until the chromatin of the nucleus and the nucleus becomes clear; 1% ammonia water-ethanol solution is blue; 0.5% eosin Y-ethanol solution is stained for 3 min, and finally dehydrated routinely, mounted, and the tissue morphology changes are observed under a light microscope. […] The glomerular volume of rats in the DKD group of the Vehicle group increased, the mesangial area was diffusely widened, the mesangial cells were proliferated, the capillary loops were expanded, the mesangial matrix increased, and the glomerular capillary basement membrane was irregularly thickened. Renal pathological changes such as vacuole deformation, shedding of renal tubular epithelial cells and infiltration of a large number of inflammatory cells (FIG. 9A).

STZ-induced DKD rats [2] = assay: PAS staining, glomerular sclerosis index, STZ-induced DKD rats; format: in vivo, rat; settings: all doses of TBN (10, 30, 60 mg/kg twice/day); Losartan 10 mg/kg once/day; 6 weeks; P<0.001 vs Vehicle
Procedure: as §1, §2
At the end of the experiment, kidney tissues were quickly separated, fixed with 4% paraformaldehyde and embedded in paraffin, serially sliced, 5 μm each, dried at 37° C. for 1 h, and then stained with PAS. The process is briefly as follows: paraffin sections are taken out of the 65° C. oven and immediately placed in xylene for deparaffinization and gradient alcohol rehydration, followed by periodic acid treatment for 5 min and Schiff treatment for 10 min, and then differentiation is performed with differentiation solution for 10 s. […]

STZ-induced DKD rats [3] = assay: Masson staining, interstitial fibrosis index, STZ-induced DKD rats; format: in vivo, rat; settings: 10 mg/kg once/day, P<0.05 vs vehicle
Procedure: as §1, §2
At the end of the experiment, the kidney tissues were quickly separated, fixed with 4% paraformaldehyde and embedded in paraffin, serially sliced, 5 μm each, dried at 37° C. for 1 h, and then subjected to Masson staining. The process is briefly as follows: paraffin sections are taken out of the 65° C. oven and immediately put in xylene for dewaxing and gradient alcohol rehydration, according to the kit instructions, add reagent A (a mixture of equal amounts of A1 and A2) for dyeing for 8 min; then use Reagent B differentiates and reagent C turns blue; reagent D stains for 7 min; reagent E washes for 1 min; reagent F washes for 1 min; reagent G stains for 1 min; dehydrated with 95% ethanol and absolute ethanol, transparent xylene, sealed with neutral gum piece.

db/db mice [4] = assay: 24 h urine microalbumin in db/db mice; format: in vivo, mouse; settings: 10 mg/kg once/day, 6 weeks, P<0.001
Excerpt: db/db mice are congenital obese type 2 DKD mice with spontaneous mutations in the leptin receptor (Leptin receptor, Lepr) due to a point mutation in the leptin receptor gene GT located on chromosome 4. The course of polyphagia, polyuria, diabetes and hyperglycemia is similar to that of humans, and it is currently the most widely used type 2 spontaneous animal model of DKD. The db/db mice have a series of complications with the aggravation of diabetes. The main pathological changes of renal tissue are the expansion of the glomerular mesangial interstitium, the thickening of the glomerular basement membrane, and the excessive accumulation of extracellular matrix. However, the glomerular mesangium of db/db mice changes relatively slowly, and the glomerular mesangium will not be dissolved or nodular glomerulosclerosis, and there is no progressive renal insufficiency. […]
db/db mice were tested for 24 h urine microalbumin in the 4th and 6th week after drug treatment. […] The absorbance value (OD value) was measured at 450 nm wavelength; the blank control hole was used for adjusting zero, the microalbuminuria standard concentration was used as the abscissa, the OD value as the ordinate, the standard curve regression equation was calculated, and on the basis of the regression equation and the sample's OD value, the concentration of the sample was determined.

db/db mice [5] = assay: Electron microscopy of kidney tissue in db/db mice; format: in vivo, mouse; settings: 10 mg/kg, 6 weeks (TBN P<0.05; Losartan P<0.01)
Excerpt: db/db mice are congenital obese type 2 DKD mice with spontaneous mutations in the leptin receptor (Leptin receptor, Lepr) due to a point mutation in the leptin receptor gene GT located on chromosome 4. The course of polyphagia, polyuria, diabetes and hyperglycemia is similar to that of humans, and it is currently the most widely used type 2 spontaneous animal model of DKD. The db/db mice have a series of complications with the aggravation of diabetes. The main pathological changes of renal tissue are the expansion of the glomerular mesangial interstitium, the thickening of the glomerular basement membrane, and the excessive accumulation of extracellular matrix. However, the glomerular mesangium of db/db mice changes relatively slowly, and the glomerular mesangium will not be dissolved or nodular glomerulosclerosis, and there is no progressive renal insufficiency.
Six-week-old db/db mice were purchased, and start the administration after adaptive feeding for 1 week (i.e., 7-week-old). TBN is administered twice a day (fixed by starting from 9:00-10:00 am and 3:00-4:00 pm, with an interval of 6 hours), and the positive control drug Losartan was administered once a day (fixed at 9:00-10:00 am) for 6 weeks.
After the mice were executed, the renal cortex was quickly taken with sharp blade (performed on ice); fixed with 2.5% glutaraldehyde (pH 7.4) at 4° C. for 6 h; then fixed for 2 h in a stationary liquid having 1:1 of 0.2 mmol/L PBS and 2% osmic acid, and dehydrated with gradient acetone at 4° C., 10 min for each of 50%, 70%, 90% acetone, then dehydrated with 100% acetone at room temperature twice, each time 15 min; in 1:1 acetone and Epon812 epoxy resin embedded mixed liquid, soaked at room temperature for 30 min; then dipped through the pure furnishings overnight, the embedding agent was made enveloping into tissue blocks completely to replace the dehydrating agent; the samples were embedded in the embedder for ultra-thin slicing, placed at 35° C. for 12 h; placed at 45° C. for 12 h; placed at 60° C. for 48 h; placed in a 37° C. oven for 36 h, in a 60° C. oven for 36 h; 1.5 μm semi-slice was prepared with an ultra-thin slicer; positioning under optical microscope, a trapeter having a top area of about 1 mm^2 was shaped to prepare 60-70 nm thick ultra-thin slices; dyed in dark with acetate hydroxide liquid for 10 min, and dyed in lead-stained citrate for 10 min.

db/db mice [6] = assay: Urinary albumin/creatinine ratio in db/db mice, TBN alone and in combination; format: in vivo, mouse; settings: TBN 30 mg/kg, Losartan 10 mg/kg, TBN+Losartan (FIG. 17)
Procedure: Grouping and dosing are the same as in Example 9. At the end of the experiment, 24 h urine samples were collected, antiseptic treatment was performed to all urine specimens with toluene, 24 h urine was centrifuged to remove precipitation and placed in a 1.5 mLEP tube and then placed in a refrigerator at −20° C. for later use, urinary albumin content was measured with ELISA kits, urine creatinine levels were detected by use of an automatic biochemical analyzer, and the ratio of both was calculated. The results as shown in FIG. 19 indicate that the ratio of urinary microalbumin to creatinine in DB/DB group was higher than that in wt/wt group, and the db/db mice 24 h urinary albumin creatinine ratio decreased in TBN group, losartan group and TBN-losartan combination group. Referring to this method, metformin (150 mg/kg, qd), and HIF-PH inhibitor roxadustat (10 mg/kg, once 2 every days) were given via oral administration, the combination groups of TBN with respectively metformin and roxadustat also reduce 24 h urinary albumin creatinine ratio.

STZ-induced DKD rats [7] = assay: Body weight, water intake and food intake of STZ-induced DKD rats; format: in vivo, rat
Procedure: (§3) SD rats (200±10 g) were used as model animals, which were fasted for 12 h before injection. STZ was dissolved in citrate buffer at 1% concentration, and rats were fasted and intraperitoneally injected with 55 mg/kg STZ and placed in the cage, the rats being ensured with adequate water intake for 24 h. STZ injections need to be fast and complete within 10 minutes of injection. The normal control group was injected with an equal volume of pH 4.5 citric acid-sodium citrate buffer. The state of the animals (multiple drinking and polyuria) was observed. After 3 weeks of STZ injection, blood was collected from the tail vein, and fasting blood glucose ≥16.7 mmol/L was measured as the standard for diabetic nephropathy in rats.
(§4) DKD rats were randomly assigned to 6 groups and given with different drugs. After 6 weeks of administration, the experiment was terminated and the protective effect of the drug on DKD rats was observed.
The general condition and body weight changes after rat modeling were observed weekly. The general conditions include the activity, mental state, coat color, diet, water intake and urine volume of the rats. The amount of water and the amount of feed were recorded weekly.

STZ-induced DKD rats [8] = assay: Retinopathy of STZ-induced DKD rats; format: in vivo, rat; settings: DKD rats after treatment, Table 1 (FIG. 5)
Procedure: as §3, §4
During the experiment, the retinopathy of rats was observed during daily administration, and the dates of retinopathy in different groups of rats were recorded.

STZ-induced DKD rats [9] = assay: Blood glucose and urine protein in STZ-induced DKD rats; format: in vivo, rat
Procedure: as §3, §4
During the experiment, the blood glucose of the rats was monitored after the completion of the modeling and after the completion of the administration, and urine protein was collected once at 24 hour.

STZ-induced DKD rats [10] = assay: Serum biochemical parameters of STZ-induced DKD rats; format: in vivo, rat; settings: six weeks after administration, dose-dependent
Procedure: as §3, §4
Six weeks after the administration, the rats were anesthetized, and the blood was taken from the abdominal aorta, and, after standing for 1 hour, was centrifuged at 3000 rmp for 10 min and stored at −70° C. Serum levels of creatinine, urea nitrogen, cholesterol and triglycerides were measured using an automated biochemical analyzer.

STZ-induced DKD rats [11] = assay: Kidney index of STZ-induced DKD rats; format: in vivo, rat; settings: after 6 weeks of administration
Procedure: as §3, §4
After 6 weeks of administration, the kidney tissue was uniformly separated by an autoclave surgical instrument, and washed with normal saline. After the filter paper was blotted, the fine balance was weighed, and then stored in a refrigerator at −80° C. for use. Kidney index (relative to kidney weight) is kidney weight (mg)/body weight (g)[…].

EPO mRNA = EPO mRNA by RT-PCR in CoCl2-induced HepG2 cell hypoxia model; settings: hypoxia model caused by cobalt dichloride, concentration not given

Question: How did the glomerular area (STZ-induced DKD rats [1]) turn out when `CCCCc1nc(Cl)c(CO)n1Cc1ccc(-c2ccccc2-c2nn[nH]n2)cc1` [Losartan, reference compound] was run?
Answer: The glomerular area was “did not significantly reduce”.

Question: What about the “renal tissue damage (HE)” value (STZ-induced DKD rats [1]) of the same molecule?
Answer: The value was “improved”.

Question: And the glomerular sclerosis index (STZ-induced DKD rats [2])?
Answer: Its glomerular sclerosis index is “significantly reduce”.

Question: What about the interstitial fibrosis index (STZ-induced DKD rats [3]) of the same molecule?
Answer: Its interstitial fibrosis index is “significantly reduced”.

Question: And the “24 h urine microalbumin production” value (db/db mice [4])?
Answer: Its value is “significantly reduced”.

Question: And the “thickness of the glomerular base film” value (db/db mice [5])?
Answer: The value was “significantly reduced”.

Question: And the “24 h urinary albumin creatinine ratio” value (db/db mice [6])?
Answer: Its value is “decreased”.

Question: How did the body weight (STZ-induced DKD rats [7]; STZ-induced diabetic nephropathy rats, FIG. 1a) turn out when `Cc1nc(/C=[N+](\[O-])C(C)(C)C)c(C)nc1/C=[N+](\[O-])C(C)(C)C` [TN-2] was run?
Answer: The body weight was “no effect”.

Question: What about the water intake (STZ-induced DKD rats [7]; vs model group, FIG. 1b) of the same molecule?
Answer: The water intake was “significantly lower”.

Question: What about the food intake (STZ-induced DKD rats [7]; vs model group, FIG. 1c) of the same molecule?
Answer: Its food intake is “significantly lower”.

Question: And the number of retinopathy (STZ-induced DKD rats [8])?
Answer: Its number of retinopathy is “reduced”.

Question: What about the “time when retinopathy occurred” value (STZ-induced DKD rats [8]) of the same molecule?
Answer: The value was “relatively delayed”.

Question: What about the “urinary protein content in urine” value (STZ-induced DKD rats [9]; 24 hour urine, DKD rats) of the same molecule?
Answer: Its value is “significantly reduced”.

Question: And the blood glucose (STZ-induced DKD rats [9]; after 6 weeks of treatment)?
Answer: The blood glucose was “significantly decreased”.

Question: And the serum cholesterol (STZ-induced DKD rats [10])?
Answer: Its serum cholesterol is “significantly reduce”.

Question: What about the serum creatinine (STZ-induced DKD rats [10]) of the same molecule?
Answer: The serum creatinine was “significantly reduce”.

Question: And the serum triglyceride (STZ-induced DKD rats [10])?
Answer: Its serum triglyceride is “significantly reduce”.

Question: And the serum urea nitrogen (STZ-induced DKD rats [10])?
Answer: The serum urea nitrogen was “significantly reduce”.

Question: What about the kidney index (STZ-induced DKD rats [11]) of the same molecule?
Answer: Its kidney index is “significantly reduced”.

Question: What about the “expression of EPO mRNA” value (EPO mRNA) of the same molecule?
Answer: The value was “increase”.
